The nature of data set [1]: Pharmacokinetic parameters in the rat (i.v. and intragastric). Particulars: for clearance / Vd / half-life: male, plasma; for clearance: read-out: CLplasma (converted); for Vd: read-out: Vss; for half-life: terminal, read-out: t½ (converted); for F: oral bioavailability. It counts as in vivo. On the procedure: Determination of the Pharmacokinetic Parameters of a Test Substance in the Rat and in the Dog For this, the test substances were applied in dissolved form both for intravenous, and for intragastric application, wherein compatible solubilizers such as PEG400 and/or ethanol were used in a compatible amount. […] Administration was as a bolus injection in the male rat and as an infusion in the female dog (15 min) At various time points after the bolus injection, and before and after the 15-minute infusion, blood samples of about 100-150 μl were removed via a catheter either from the jugular vein (rat) or from the saphenous vein (dog). Lithium-heparin was added as anticoagulant to the blood samples and they were stored in a refrigerator until required for further processing. After centrifugation of the samples for 15 min at 3000 rpm, an aliquot of 100 μl was taken from the supernatant (plasma) and was precipitated by adding 400 μl of cold ACN or methanol (absolute). The precipitated samples were frozen-out at […] overnight, then centrifuged again at 3000 rpm for 15 min, before 150 μl of the clear supernatant were removed to determine the concentration. The analysis was effected by means of an Agilent 1200 HPLC system with connected LCMS/MS detection. Calculation of the PK parameters (using PK calculation software, e.g. WinNonLin®): CLplasma: total plasma clearance of the test substance (in 1*kg/h); CLblood: total blood clearance of the test substance (in 1*kg/h), where (CLblood=CLplasma*Cp/Cb); Vss: apparent steady-state distribution volume (in 1/kg); t½: half-life within a specified interval (here: terminal t½, in h); AUCnorm: area under the plasma concentration time profile from time point zero extrapolated to infinity divided by the dose normalized for body weight (in kg*l/h); AUC(0-tn)norm: integrated area under the plasma concentration time profile from time point zero until the last time point at which a plasma concentration was measurable, divided by the dose normalized for body weight (in kg*l/h); Cmax: maximum concentration of the test substance in the plasma (in μg/l); Cmax,norm: maximum concentration of the test substance in the plasma divided by the dose normalized for body weight (in kg/l); Cb/Cp: ratio of the blood to plasma concentration distribution. […] At various time points after administration, blood samples of about 100-150 μl were removed via a catheter either from the jugular vein (rat) or from the saphenous vein (dog). Lithium-heparin was added as anticoagulant to the blood samples and they were stored in a refrigerator until required for further processing. After centrifugation of the samples for 15 min at 3000 rpm, an aliquot of 100 μl was taken from the supernatant (plasma) and was precipitated by adding 400 μl of cold ACN or methanol (absolute). The precipitated samples were frozen-out at −20° C. overnight, then centrifuged at 3000 rpm for 15 min, before 150 μl of the clear supernatant were removed to determine the concentration. The analysis was effected by means of an Agilent 1200 HPLC system with connected LCMS/MS detection. […]

Data set [2] is described as follows: Maximum tolerated dose (MTD) in female nude mice. The data set is classed as in vivo, mouse. Conditions: for Deaths: 21 days; for MTD at 21 days: female, NMRI-nude (nu/nu), mouse, in vivo, administration once per day. The procedure:
To this end, initially the maximum tolerable dose (MTD) was determined using the following protocol:
The MTD was defined as the highest dose which could be administered without any animal dying during the treatment phase, and without any body weight loss of more than 10% compared to the initial weight.
(§1) Administration route: oral
• (Solutol HS15: polyoxyethylene ester of 12-hydroxystearic acid) Administration volume: 10 ml/kg: Protocol: see Table 7
The treatment phase was followed by an observation phase of 21 days.

In another data set the test system is human PC-3 cells. Particulars: for Deaths / T/C: 2 administrations per day; for T/C: final tumour weight; for tolerability (good: body weight change <=minus 10% and 100% survival): administration 2 times per day. The procedure: Xenograft models in immunosuppressed mice were used to determine the antitumour activity in living organisms.
Use was made primarily of a prostate carcinoma model with hormone-independent human PC-3 cells in male nude mice (NMRI-nude (nu/nu) mice, Taconic M&B A/S). To this end, 3 million tumour cells (suspended in medium+Matrigel 1:1, final 0.1 ml) were injected subcutaneously into the side of each animal. When the tumours extended to an area of 20-30 mm^2, the mice were randomized into therapy groups and therapy was initiated. […] At this point in time, the experiment was terminated in all groups and the prepared tumours were weighed.
The T/C value was calculated as primary success parameter using the effect on the final tumour weight: mean tumour weight in the treatment group divided by mean of the tumour weight in the vehicle group.
as §1
Vehicle: PEG400/ethanol/Solutol HS 15 (70/5/25, v/v/v)
Administration volume: 10 ml/kg
Number of mice: see Table 8

Data set [3] is described as follows: Effective AUC from plasma concentration time profile in the PC3 tumour model. It counts as in vivo, mouse. Particulars: nu/nu, plasma, oral, read-out: ther. AUC (mouse). The procedure: (§2) The human pharmacokinetic (PK) parameters (Table 9) were predicted based on the in vivo PK parameters obtained for rats (single species scaling), taking into account the interspecies differences in the free fraction (fu) in the plasma. The effective AUC (area under curve) was determined based on the measured plasma concentration time profile for in vivo efficacy in the PC3 tumour model of the mouse (nu/nu mouse).

Data set [4] in a line: Prediction of human pharmacokinetic parameters and human therapeutic dosage (single species scaling from rat). Particulars: human, plasma; for AUC: read-out: calc. AUC (human); for clearance: predicted (fu-corrected) from rat PK, read-out: pred. CL (human) (converted). The procedure:
as §2, with “mouse). The therapeutic human dosage was determined using the predicted human clearance (CL), assuming 100% bioavailability (F=1) and using the effective AUC in the animal model according to the formula below: […]” for “mouse).”

The target in data set [5] is human ACC1 (Homo sapiens, UniProt Q13085). As to the kind of experiment: Human ACC1 enzyme assay (ADP-Glo). The data set is classed as biochemical. Conditions: individual measurement (measurement no./preparation no. in table); read-out: ACC 1 IC50. On the procedure: (§3) Typical concentrations were in the range of 1.75 μl.
For data set [6], the system named is human ACC1. As to the kind of experiment: Human ACC1 enzyme assay (ADP-Glo). The data set is classed as biochemical. Particulars: for Ratio IC50s ACC2/ACC1 (respective measurement): pairwise, same dilution series. On the procedure: as §3
A further data set has as its target human ACC2 (Homo sapiens (Human), UniProt O00763). As to the kind of experiment: Human ACC2 enzyme assay (ADP-Glo). Conditions: read-out: ACC 2 IC50; individual measurement (measurement no./preparation no. in table).
Setting [7] is: 100 mg/kg oral, 1 administration per day.
Where [8] appears, read: dosage (mouse) 80 mg/kg 2 × per day.
Setting [9] is: from mouse dosage 80 mg/kg 2 × per day.

“And” between values parts separate entries of the source, which are not always exact repeats. Equal values may be shown once. Read-outs that look alike come from different tables or passages of the source.

human ACC2, sequence (O00763 27-2458 limits assumed): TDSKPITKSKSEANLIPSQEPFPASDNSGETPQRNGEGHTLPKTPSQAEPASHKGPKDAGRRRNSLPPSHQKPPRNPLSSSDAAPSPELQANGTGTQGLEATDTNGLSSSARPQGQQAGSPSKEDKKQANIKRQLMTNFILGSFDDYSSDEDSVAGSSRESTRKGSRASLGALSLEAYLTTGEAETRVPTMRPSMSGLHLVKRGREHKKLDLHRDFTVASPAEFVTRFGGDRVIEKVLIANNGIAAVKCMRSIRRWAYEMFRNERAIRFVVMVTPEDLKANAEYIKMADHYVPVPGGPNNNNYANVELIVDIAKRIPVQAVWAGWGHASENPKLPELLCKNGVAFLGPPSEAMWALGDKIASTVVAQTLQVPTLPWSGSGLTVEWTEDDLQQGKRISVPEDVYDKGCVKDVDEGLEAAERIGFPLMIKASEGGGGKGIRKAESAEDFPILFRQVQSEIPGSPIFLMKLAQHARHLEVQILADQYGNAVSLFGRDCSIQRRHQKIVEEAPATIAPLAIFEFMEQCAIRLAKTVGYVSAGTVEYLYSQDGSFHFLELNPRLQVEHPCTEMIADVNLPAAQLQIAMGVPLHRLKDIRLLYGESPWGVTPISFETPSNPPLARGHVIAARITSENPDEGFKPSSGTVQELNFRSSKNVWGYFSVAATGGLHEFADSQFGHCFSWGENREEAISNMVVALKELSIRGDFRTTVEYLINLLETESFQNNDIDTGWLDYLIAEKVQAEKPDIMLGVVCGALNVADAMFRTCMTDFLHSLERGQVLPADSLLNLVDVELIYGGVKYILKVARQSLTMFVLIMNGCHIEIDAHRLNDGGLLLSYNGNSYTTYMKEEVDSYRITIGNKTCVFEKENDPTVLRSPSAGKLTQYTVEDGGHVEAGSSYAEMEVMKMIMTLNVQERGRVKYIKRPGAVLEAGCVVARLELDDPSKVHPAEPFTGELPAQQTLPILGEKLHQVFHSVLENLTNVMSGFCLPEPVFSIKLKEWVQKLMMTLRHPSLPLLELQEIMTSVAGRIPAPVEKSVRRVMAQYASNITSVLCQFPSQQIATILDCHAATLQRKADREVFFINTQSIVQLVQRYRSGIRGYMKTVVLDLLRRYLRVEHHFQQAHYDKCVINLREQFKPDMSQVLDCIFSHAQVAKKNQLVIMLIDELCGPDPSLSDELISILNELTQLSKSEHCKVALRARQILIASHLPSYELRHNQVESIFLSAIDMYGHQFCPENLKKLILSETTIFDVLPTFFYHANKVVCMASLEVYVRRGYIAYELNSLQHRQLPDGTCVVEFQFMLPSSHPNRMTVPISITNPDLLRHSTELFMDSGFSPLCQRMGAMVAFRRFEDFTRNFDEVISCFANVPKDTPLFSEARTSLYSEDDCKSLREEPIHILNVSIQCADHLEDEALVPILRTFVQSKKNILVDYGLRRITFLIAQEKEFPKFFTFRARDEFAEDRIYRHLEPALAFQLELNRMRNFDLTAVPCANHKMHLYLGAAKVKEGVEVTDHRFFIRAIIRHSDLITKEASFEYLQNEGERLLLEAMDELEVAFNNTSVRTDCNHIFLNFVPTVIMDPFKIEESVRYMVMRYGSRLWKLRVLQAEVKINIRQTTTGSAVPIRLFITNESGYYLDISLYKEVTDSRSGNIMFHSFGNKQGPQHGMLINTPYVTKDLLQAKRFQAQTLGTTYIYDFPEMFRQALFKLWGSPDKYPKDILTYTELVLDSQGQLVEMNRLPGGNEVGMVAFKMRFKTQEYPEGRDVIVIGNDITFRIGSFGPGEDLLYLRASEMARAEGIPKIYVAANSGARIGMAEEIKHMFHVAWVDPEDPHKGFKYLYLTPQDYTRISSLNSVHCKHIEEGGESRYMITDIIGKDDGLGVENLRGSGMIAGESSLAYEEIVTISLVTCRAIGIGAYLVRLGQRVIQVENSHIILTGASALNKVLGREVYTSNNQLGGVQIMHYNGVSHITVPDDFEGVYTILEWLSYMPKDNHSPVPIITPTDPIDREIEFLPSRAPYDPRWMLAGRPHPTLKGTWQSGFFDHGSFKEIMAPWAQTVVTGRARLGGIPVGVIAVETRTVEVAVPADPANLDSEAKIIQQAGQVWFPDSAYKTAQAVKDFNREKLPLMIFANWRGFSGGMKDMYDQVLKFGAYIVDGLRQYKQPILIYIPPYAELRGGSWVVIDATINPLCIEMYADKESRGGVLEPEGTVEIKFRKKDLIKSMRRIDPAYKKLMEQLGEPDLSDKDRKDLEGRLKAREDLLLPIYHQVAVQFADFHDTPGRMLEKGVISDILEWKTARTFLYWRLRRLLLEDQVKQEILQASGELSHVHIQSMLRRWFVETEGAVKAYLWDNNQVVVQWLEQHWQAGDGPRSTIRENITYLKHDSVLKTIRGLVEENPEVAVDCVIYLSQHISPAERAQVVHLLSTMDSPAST

With `CO[C@]1(C(F)(F)F)CC[C@]2(CC1)NC(=O)C(c1cc(-c3ccc(Cl)cc3)ccc1C)=C2O` [Example 1-1, (5r,8r)-3-(4′-Chloro-4-methylbiphenyl-3-yl)-4-hydroxy-8-methoxy-8-(trifluoromethyl)-1-azaspiro[4.5]dec-3-en-2-one], the CLblood in data set [1] amounted to 0.183 mL/min/kg. The clearance is 0.1 mL/min/kg in data set [1] (intravenous) and 0.0333 mL/min/kg in data set [4]. Moreover, in data set [1] (intravenous), the Vd stood at 0.85 L/kg. The half-life in data set [1] is 103 h. Further, the F in data set [1] was 163%. Besides, the Deaths in data set [2] (12.5 mg/kg oral, 1 administration per day) was 0 of 4; in data set [2] (25 mg/kg oral, 1 administration per day), 0 of 4; in data set [2] (50 mg/kg oral, 1 administration per day), 1 of 4; in data set [2] (75 mg/kg oral, 1 administration per day), 0 of 4; in data set [2] (setting [7]) it was 0 of 4; with human PC-3 cells (80 mg/kg oral, 15 days), 0 of 10. Also, the maximum tolerated dose (MTD) at 21 days in data set [2] (21-day treatment, oral) is above 100 mg/kg. The compound also registered a T/C in the data set on human PC-3 cells (80 mg/kg oral, 15 days) of 0.34. In the data set with human PC-3 cells (80 mg/kg), the “tolerability (good: body weight change <=minus 10% and 100% survival)” value is listed as “good tolerability”. The figures for the AUC in data set [3] (setting [8]) and in data set [4] (setting [9]) were 289 µg·h/mL and 1160 µg·h/mL, respectively.

Turning to `CO[C@]1(C(F)(F)F)CC[C@]2(CC1)NC(=O)C(c1cc(-c3ccc(Cl)c(F)c3)ccc1C)=C2O` [Example 1-2, (5r,8r)-3-(4′-Chloro-3′-fluoro-4-methylbiphenyl-3-yl)-4-hydroxy-8-methoxy-8-(trifluoromethyl)-1-azaspiro[4.5]dec-3-en-2-one], in data set [1], the CLblood was 0.65 mL/min/kg. Further, the clearance in data set [1] (intravenous) is 0.483 mL/min/kg; in data set [4], 0.15 mL/min/kg. Further, the Vd in data set [1] (intravenous) was determined as 2.4 L/kg. In addition, the half-life in data set [1] was 65 h. Besides, the F in data set [1] was 131%. The Deaths with human PC-3 cells (40 mg/kg oral, 17 days) is 0 of 9; in the data set with human PC-3 cells (80 mg/kg oral, 17 days), 0 of 9. In addition, the T/C amounted to 0.44 with human PC-3 cells (40 mg/kg oral, 17 days) and 0.28 with human PC-3 cells (80 mg/kg oral, 17 days). Moreover, the “tolerability (good: body weight change <=minus 10% and 100% survival)” value in the data set on human PC-3 cells (40 mg/kg) and with human PC-3 cells (80 mg/kg) was “good tolerability” in each case. Further, the AUC is 66 µg·h/mL in data set [3] (dosage (mouse) 40 mg/kg 2 × per day), 156 µg·h/mL in data set [3] (setting [8]), 355 µg·h/mL in data set [4] (from mouse dosage 40 mg/kg 2 × per day) and 842 µg·h/mL in data set [4] (setting [9]).

Consider `COC[C@]1(OC)CC[C@@]2(CC1)NC(=O)C(c1cc(-c3ccc(Cl)cc3)ccc1C)=C2O` [Example 1-3, (5r,8r)-3-(4′-Chloro-4-methylbiphenyl-3-yl)-4-hydroxy-8-methoxy-8-(methoxymethyl)-1-azaspiro[4.5]dec-3-en-2-one], for which the IC50 at human ACC1 [5] is 165 nM and 146 nM. Also, in the data set with human ACC1 [6], the “Selectivity ACC1 vs. ACC2 (mean of the individual measurements ± standard deviation)” value turned out to be 47.0 ± 2.1; the “Ratio IC50s ACC2/ACC1 (respective measurement)” value (“Ratio IC50s ACC2/ACC1” for short) was 49.0 and 44.9. Besides, in data set [1], the CLblood is 0.083 mL/min/kg, the half-life is 79 h and the F came to 68%. For the same compound, in data set [1] (iv), the clearance was 0.0333 mL/min/kg and the Vd was determined as 0.29 L/kg. Moreover, the IC50 on human ACC2 is 8080 nM and 6550 nM.

In turn, `COC[C@]1(OC)CC[C@@]2(CC1)NC(=O)C(c1cc(-c3ccc(Cl)c(F)c3)ccc1C)=C2O` [Example 1-4, (5r,8r)-3-(4′-Chloro-3′-fluoro-4-methylbiphenyl-3-yl)-4-hydroxy-8-methoxy-8-(methoxymethyl)-1-azaspiro[4.5]dec-3-en-2-one] showed a CLblood in data set [1] of 0.183 mL/min/kg. The values for the clearance in data set [1] (intravenous) and in data set [4] were 0.117 mL/min/kg and 0.05 mL/min/kg, respectively. Also, the Vd in data set [1] (intravenous) is 0.44 L/kg. In addition, the half-life in data set [1] is 51 h. Besides, in data set [1], the F is given as 83%. Also, the Deaths in data set [2] (25 mg/kg oral, 2 administrations per day) is listed as 0 of 4; in data set [2] (50 mg/kg oral, 2 administrations per day), 0 of 4; in data set [2] (75 mg/kg oral, 2 administrations per day), 0 of 4; in data set [2] (setting [7]), 0 of 4; in data set [2] (100 mg/kg oral, 2 administrations per day), 0 of 4; with human PC-3 cells (80 mg/kg oral, 17 days) it was 0 of 10. In addition, the MTD result in data set [2] (21-day treatment, administration twice per day, oral) is “higher than 100 mg/kg”. The MTD at 21 days in data set [2] (21-day treatment, oral) is above 100 mg/kg. The same compound displayed a T/C with human PC-3 cells (80 mg/kg oral, 17 days) of 0.29. Further, the “tolerability (good: body weight change <=minus 10% and 100% survival)” value in the data set on human PC-3 cells (80 mg/kg) is “good tolerability”. Besides, the AUC in data set [3] (setting [8]) was 712 µg·h/mL; in data set [4] (setting [9]), 4130 µg·h/mL.

With `COC[C@H]1CC[C@]2(CC1)NC(=O)C(c1cc(-c3ccc(Cl)cc3)ccc1C)=C2O` [V.3-b, (5s,8s)-3-(4′-Chloro-4-methylbiphenyl-3-yl)-4-hydroxy-8-(methoxymethyl)-1-azaspiro[4.5]dec-3-en-2-one], in the data set on human ACC1 [6], the “Selectivity ACC1 vs. ACC2 (mean of the individual measurements ± standard deviation)” value was 6.4 and the “Ratio IC50s ACC2/ACC1” value was 6.4.

Turning to `COC[C@H]1CC[C@]2(CC1)NC(=O)C(c1cc(-c3ccc(Cl)c(F)c3)ccc1C)=C2O` [V.4-b, (5s,8s)-3-(4′-Chloro-3′-fluoro-4-methylbiphenyl-3-yl)-4-hydroxy-8-(methoxymethyl)-1-azaspiro[4.5]dec-3-en-2-one], the IC50 on human ACC1 [5] came to 73 nM. In the data set on human ACC1 [6], the “Selectivity ACC1 vs. ACC2 (mean of the individual measurements ± standard deviation)” value stood at 15.2 and the “Ratio IC50s ACC2/ACC1” value came out at 15.2. In addition, on human ACC2, the IC50 amounted to 1120 nM.

The values are drawn from US9278925B2, “Substituted 3-(biphenyl-3-yl)-4-hydroxy-8-methoxy-1-azaspiro[4.5]dec-3-en-2-one” (BAYER INTELLECTUAL PROPERTY GMBH, priority 2011, dated 2016).
